Laboratory results as given in patent US10759810B2 (AO “TATKHIMFARMPREPARATY”, priority 2016, dated 2020).
In brackets after ≈: the same amount, converted by molar mass.

How the values were obtained:
[1] = test system: clinical freshly isolated strains of Staphylococcus aureus MRSA; test: Antibacterial activity (MIC), clinical MRSA strains overall; assay type: cell-based; conditions: in words, in almost all cases
Experimental: (§1) Measurement of antibacterial activity was carried out on the strains of Staphylococcus aureus ATCC 29213 (museum strain), Staphylococcus epidermidis (clinical isolate), Micrococcus luteus (clinical isolate), Bacillus subtilis 168 (museum strain), Escherichia coli ATCC 25922 (museum strain), Salmonella typhimurium TA100 (museum strain), Pseudomonas aeruginosa ATCC 27853 (museum strain). A comparative assessment of the spectrum of antibacterial action on reference strains and clinical isolates of gram-positive microorganisms was carried out using a micromethod for determining the minimum inhibitory concentration (MIC) using serial dilutions in Mueller-Hinton broth using 96-well sterile plates.
(§2) The first lowest concentration of the antibiotic (from a series of successive dilutions), where bacterial growth is not visually determined, is considered to be the minimum inhibitory concentration (MIC).
(§3) For the preparation of inoculum (infectious material used for artificial contamination), intended for the study of antibacterial activity, was used a pure daily culture of bacteria grown on a dense nutrient medium (agar LB medium). […] The inoculum was used for 15 minutes after preparation; the purity of the bacterial strains was monitored before each experiment. […]

[2] = test system: gram-positive microorganisms; test: Antibacterial activity (MIC), gram-positive strains; assay type: cell-based; conditions: in words, versus comparison drugs
Experimental: as §1, §2, §3

[3] = test system: ICR mice (CD-1); test: General acute toxicity, fixed-dose method, intragastric administration; assay type: in vivo, mouse; conditions: for Number of animals in the group/number of dead animals / LD10 / LD16 / LD50 with confidence interval / LD84: mouse
Experimental: The acute toxicity of compound I-2 was studied using the fixed-dose method in ICR mice (CD-1) (6-8 weeks, 20-25 g) of both sexes, 6 animals per group. The starting dose for testing compound I-2 was 5000 mg/kg. The intragastric (oral) administration of compound I-2 to animals (<2.5 ml/100 g) using a gastric probe was used.

[4] = test system: Pseudomonas aeruginosa ATCC 27853 (museum strain); test: MIC, serial dilutions in Mueller-Hinton broth; assay type: cell-based
Experimental: as §1, §2
(§4) For the preparation of inoculum (infectious material used for artificial contamination), intended for the study of antibacterial activity, was used a pure daily culture of bacteria grown on a dense nutrient medium (agar LB medium). In a sterile isotonic solution of sodium chloride, a suspension of microorganisms was prepared, adjusting the inoculum density to 0.5 according to the McFarland standard (1.5·10^8 CFU/ml). Then, the resulting inoculum was diluted to a concentration of 10^7 CFU/ml with LB-broth. The inoculum was used for 15 minutes after preparation; the purity of the bacterial strains was monitored before each experiment.
(§5) 100 μl of Muller-Hinton broth was added to the wells of each plate; the test base was introduced into the first well at a concentration of 128 μg/ml in a volume of 100 μl and its concentration was adjusted to 0.25 μg/ml by consecutive two-fold dilution. […] Each preparation in the experiment was titrated three times. […] In addition, the purity of nutrient media and solvents was monitored. The plates were incubated in a thermostat at […] for 24 hours.
(§6) The growth of cultures was assessed visually, comparing the growth of microorganisms in the presence of test compounds with the growth of culture without them.

[5] = test system: Micrococcus luteus (clinical isolate); test: MIC, serial dilutions in Mueller-Hinton broth; assay type: cell-based
Experimental: as §1, §2, §4, §5, §6

[6] = test system: Salmonella typhimurium TA100 (museum strain); test: MIC, serial dilutions in Mueller-Hinton broth; assay type: cell-based
Experimental: as §1, §2, §4, §5, §6

[7] = test system: Staphylococcus epidermidis (clinical isolate); test: MIC, serial dilutions in Mueller-Hinton broth; assay type: cell-based
Experimental: as §1, §2, §4, §5, §6

[8] = test system: Bacillus subtilis 168 (museum strain); test: MIC, serial dilutions in Mueller-Hinton broth; assay type: cell-based
Experimental: as §1, §2, §4, §5, §6

[9] = test system: Staphylococcus aureus ATCC 29213 (museum strain); test: MIC, serial dilutions in Mueller-Hinton broth; assay type: cell-based
Experimental: as §1, §2, §4, §5, §6

[10] = test system: Escherichia coli ATCC 25922 (museum strain); test: MIC, serial dilutions in Mueller-Hinton broth; assay type: cell-based
Experimental: as §1, §2, §4, §5, §6

[11] = test system: microorganism strains under study; test: Antibacterial activity (MIC), whole strain panel; assay type: cell-based; conditions: in words, from Table 1
Experimental: as §1, §2, §3

[12] = test system: gram-negative bacterial strains; test: Antibacterial activity (MIC), gram-negative strains; assay type: cell-based; conditions: in words
Experimental: as §1, §2, §3

[13] = test system: S. aureus MRSA 981; test: MIC on clinical strain; assay type: cell-based, Staphylococcus aureus
Experimental: as §1, §2, §4, §5, §6

[14] = test system: S. aureus MRSA 1163; test: MIC on clinical strain; assay type: cell-based, Staphylococcus aureus
Experimental: as §1, §2, §4, §5, §6

[15] = test system: S. aureus MRSA 1168; test: MIC on clinical strain; assay type: cell-based, Staphylococcus aureus
Experimental: as §1, §2, §4, §5, §6

[16] = test system: S. aureus MRSA 1130; test: MIC on clinical strain; assay type: cell-based, Staphylococcus aureus
Experimental: as §1, §2, §4, §5, §6

[17] = test system: S. aureus MRSA 1131; test: MIC on clinical strain; assay type: cell-based, Staphylococcus aureus
Experimental: as §1, §2, §4, §5, §6

[18] = test system: S. aureus MRSA 983; test: MIC on clinical strain; assay type: cell-based, Staphylococcus aureus
Experimental: as §1, §2, §4, §5, §6

[19] = test system: S. aureus MRSA 2020; test: MIC on clinical strain; assay type: cell-based, Staphylococcus aureus
Experimental: as §1, §2, §4, §5, §6

[20] = test system: S. aureus MRSA 1065; test: MIC on clinical strain; assay type: cell-based, Staphylococcus aureus
Experimental: as §1, §2, §4, §5, §6

[21] = test system: S. aureus MRSA 1053; test: MIC on clinical strain; assay type: cell-based, Staphylococcus aureus
Experimental: as §1, §2, §4, §5, §6

[22] = test system: S. aureus MRSA 1173; test: MIC on clinical strain; assay type: cell-based, Staphylococcus aureus
Experimental: as §1, §2, §4, §5, §6

[23] = test system: S. aureus MRSA 967; test: MIC on clinical strain; assay type: cell-based, Staphylococcus aureus
Experimental: as §1, §2, §4, §5, §6

[24] = test system: S. aureus MRSA 1143; test: MIC on clinical strain; assay type: cell-based, Staphylococcus aureus
Experimental: as §1, §2, §4, §5, §6

[25] = inoculum 10^7 CFU/ml, gram-negative
[26] = inoculum 10^7 CFU/ml, gram-positive

## Cc1ncc(CN2CCN(c3cc4c(cc3F)c(=O)c(C(=O)O)cn4C3CC3)CC2)c(CO)c1O [Compound I-2, 1-cyclopropyl-6-fluoro-7-(4-((5-hydroxy-4-hydroxymethyl-6-methylpyridine-3-yl)methyl)piperazinyl)-4-oxo-1,4-dihydroquinolin-3-carboxylic acid]
[1]
  MIC on clinical MRSA strains compared with ceftriaxone: superior to ceftriaxone
[2]
  antibacterial action with respect to gram-positive microorganisms: comparable with the comparison drugs
[3]; end of experiment, pathomorphological dissection
  changes during the autopsy of mice: No changes were observed
[3]; from acute toxicity in mice
  hazard class: 4
[3]; mice of both sexes, 5000 mg/kg intragastric
  behaviour after dosing: slight inhibition of activity
[3]; mice of both sexes, 5000 mg/kg intragastric, whole experiment
  death of animals (mortality): not observed
[3]; mice, 5000 mg/kg intragastric
  abnormalities during the observation period: no abnormalities were observed
  time until animals began to take food and water: 1.5 to 2 h
  time until behavior of animals returned to normal: 20 to 30 min
[3]; mice, intragastric, up to 5000 mg/kg
  mean lethal dose: not detected
[3]; females, 5000 mg/kg intragastric
  Number of animals in the group/number of dead animals: 6/0
[3]; females, intragastric
  LD10: >5000 mg/kg
  LD16: >5000 mg/kg
  LD50 with confidence interval: >5000 mg/kg
  LD84: >5000 mg/kg
[3]; males, 5000 mg/kg intragastric
  Number of animals in the group/number of dead animals: 6/0
[3]; males, intragastric
  LD10: >5000 mg/kg
  LD16: >5000 mg/kg
  LD50 with confidence interval: >5000 mg/kg
  LD84: >5000 mg/kg
[4]; [25]
  MIC, P. aerugenosa: >64 µg/mL
[5]; [26]
  MIC, M. luteus: 4 µg/mL (≈ 8.29 µM)
[6]; [25]
  MIC, S. typhimurium: 2 µg/mL (≈ 4.14 µM)
[7]; [26]
  MIC, S. epidermidis: 2 µg/mL (≈ 4.14 µM)
[8]; [26]
  MIC, B. subtilis: <2 µg/mL
[9]; [26]
  MIC, S. aureus: 2 µg/mL (≈ 4.14 µM)
[10]; [25]
  MIC, E. coli: 2 µg/mL (≈ 4.14 µM)
[11]
  antibacterial activity against the microorganism strains under study: most active
[12]
  antibacterial activity in relation to gram-negative bacterial strains: low antibacterial activity
[13]; inoculum 10^7 CFU/ml
  The value of the MIC, S. aureus MRSA 981: 16 µg/mL
[14]; inoculum 10^7 CFU/ml
  The value of the MIC, S. aureus MRSA 1163: 0.5 µg/mL
[15]; inoculum 10^7 CFU/ml
  The value of the MIC, S. aureus MRSA 1168: 0.25 µg/mL
[16]; inoculum 10^7 CFU/ml
  The value of the MIC, S. aureus MRSA 1130: 16 µg/mL
[17]; inoculum 10^7 CFU/ml
  The value of the MIC, S. aureus MRSA 1131: 16 µg/mL
[18]; inoculum 10^7 CFU/ml
  The value of the MIC, S. aureus MRSA 983: 8 µg/mL
[19]; inoculum 10^7 CFU/ml
  The value of the MIC, S. aureus MRSA 2020: 0.25 µg/mL
[20]; inoculum 10^7 CFU/ml
  The value of the MIC, S. aureus MRSA 1065: 32 µg/mL
[21]; inoculum 10^7 CFU/ml
  The value of the MIC, S. aureus MRSA 1053: 16 µg/mL
[22]; inoculum 10^7 CFU/ml
  The value of the MIC, S. aureus MRSA 1173: 16 µg/mL
[23]; inoculum 10^7 CFU/ml
  The value of the MIC, S. aureus MRSA 967: 16 µg/mL
[24]; inoculum 10^7 CFU/ml
  The value of the MIC, S. aureus MRSA 1143: 32 µg/mL

## CN[C@H](CC(C)C)C(=O)N[C@H]1C(=O)N[C@@H](CC(N)=O)C(=O)N[C@H]2C(=O)N[C@H]3C(=O)N[C@H](C(=O)N[C@H](C(=O)O)c4cc(O)cc(O)c4-c4cc3ccc4O)[C@H](O)c3ccc(c(Cl)c3)Oc3cc2cc(c3O[C@@H]2O[C@H](CO)[C@@H](O)[C@H](O)[C@H]2O[C@H]2C[C@](C)(N)[C@H](O)[C@H](C)O2)Oc2ccc(cc2Cl)[C@H]1O [Vancomycin, vancomycin]
[4]; Pseudomonas aeruginosa, ATCC27853, read-out: MIC, P. aerugenosa
  MIC: > 64 µg/mL
[5]; Micrococcus luteus, read-out: MIC, M. luteus
  MIC: 4 µg/mL (≈ 2.76 µM)
[6]; Salmonella enterica, TYPHIMURIUM, read-out: MIC, S. typhimurium
  MIC: 64 µg/mL (≈ 44.2 µM)
[7]; Staphylococcus epidermidis, read-out: MIC, S. epidermidis
  MIC: 4 µg/mL (≈ 2.76 µM)
[8]; Bacillus subtilis, read-out: MIC, B. subtilis
  MIC: 64 µg/mL (≈ 44.2 µM)
[9]; Staphylococcus aureus, ATCC29213, read-out: MIC, S. aureus
  MIC: 4 µg/mL (≈ 2.76 µM)
[10]; Escherichia coli, ATCC25922, read-out: MIC, E. coli
  MIC: 64 µg/mL (≈ 44.2 µM)
[13]; Staphylococcus aureus, MRSA, read-out: The value of the MIC, S. aureus MRSA 981
  MIC: 2 µg/mL (≈ 1.38 µM)
[14]; Staphylococcus aureus, MRSA, read-out: The value of the MIC, S. aureus MRSA 1163
  MIC: 2 µg/mL (≈ 1.38 µM)
[15]; Staphylococcus aureus, MRSA, read-out: The value of the MIC, S. aureus MRSA 1168
  MIC: 0.5 µg/mL (≈ 0.345 µM)
[16]; Staphylococcus aureus, MRSA, read-out: The value of the MIC, S. aureus MRSA 1130
  MIC: 1 µg/mL (≈ 0.69 µM)
[17]; Staphylococcus aureus, MRSA, read-out: The value of the MIC, S. aureus MRSA 1131
  MIC: 0.5 µg/mL (≈ 0.345 µM)
[18]; Staphylococcus aureus, MRSA, read-out: The value of the MIC, S. aureus MRSA 983
  MIC: 2 µg/mL (≈ 1.38 µM)
[19]; Staphylococcus aureus, MRSA, read-out: The value of the MIC, S. aureus MRSA 2020
  MIC: 0.5 µg/mL (≈ 0.345 µM)
[20]; Staphylococcus aureus, MRSA, read-out: The value of the MIC, S. aureus MRSA 1065
  MIC: 1 µg/mL (≈ 0.69 µM)
[21]; Staphylococcus aureus, MRSA, read-out: The value of the MIC, S. aureus MRSA 1053
  MIC: 2 µg/mL (≈ 1.38 µM)
[22]; Staphylococcus aureus, MRSA, read-out: The value of the MIC, S. aureus MRSA 1173
  MIC: 2 µg/mL (≈ 1.38 µM)
[23]; Staphylococcus aureus, MRSA, read-out: The value of the MIC, S. aureus MRSA 967
  MIC: 4 µg/mL (≈ 2.76 µM)
[24]; Staphylococcus aureus, MRSA, read-out: The value of the MIC, S. aureus MRSA 1143
  MIC: 1 µg/mL (≈ 0.69 µM)
